Data on three molecules can be found in ChEMBL document CHEMBL1149002, “Antineoplastic agents, 116. An evaluation of the marine ascidian Aplidium californicum” (1986).

Type in all cases: functional
Test [1] deals with P388. The experiment in a line: In vivo antineoplastic activity against mouse P388 cells assessed as life extension at 46 to 92 ug/kg.
Test [2] has as its system P388. The experiment in a line: In vivo antineoplastic activity against mouse P388 cells assessed as life extension at 46 to 185 ug/kg.
The subject of test [3] is P388. The experiment in a line: In vivo antineoplastic activity against mouse P388 cells assessed as life extension at 3.1 mg/kg.

Regarding `CCCC(=O)O[C@H]1/C(=C/C(=O)OC)C[C@@H]2C[C@H]([C@@H](C)O)OC(=O)C[C@H](O)C[C@@H]3C[C@H](OC(=O)CC(C)C)C(C)(C)[C@](O)(C[C@@H]4C/C(=C/C(=O)OC)C[C@H](/C=C/C(C)(C)[C@]1(O)O2)O4)O3` [BRYOSTATIN 4], the Activity in test [1] was determined as 62%. On to `COC(=O)/C=C1/C[C@H]2C[C@]3(O)O[C@H](C[C@@H](O)CC(=O)O[C@@H]([C@@H](C)O)C[C@H]4C/C(=C\C(=O)OC)[C@H](OC(C)=O)[C@@](O)(O4)C(C)(C)/C=C/[C@@H](C1)O2)C[C@H](OC(=O)CC(C)C)C3(C)C` [BRYOSTATIN 5], for which, in test [2], the Activity was 45%. For the molecule `CC(C)=CCc1cc(O)ccc1O` [PRENYLHYDROQUINONE], the Activity in test [3] is on record as 38%.
